Results published in patent US6812212B2, “Assessment of oxidant stress in vitro and in vivo” (priority 2000, dated 2004).
Values belong to the compound of their own block, whether it stands above or below them.

Columns and labels:
cytochrome c [1] = test: Nitration and polymerization of cytochrome c by NO donor during prostaglandin H2 synthase form 2 metabolism of arachidonic acid; assay type: biochemical; conditions: 300 μM DETA NONOate with ovine PGHS-2 and arachidonic acid (590 μM), 37° C., 30 minutes
Procedure: Western blot analysis was carried out with monoclonal antibodies produced against nitrotyrosine using the alkaline phosphatase system;
Reaction mixture in 100 mM phosphate buffer, pH 7.4, (total volume, 200 μl) was incubated at 37° C. for 30 minutes. The reaction mixture contained a combination of cytochrome c (40 μg), ovine prostaglandin H2 synthase form 2 (104 units), arachidonic acid (590 μM), epinephrine (31 μg), hematin (1 μM), and DETA NONOate, an NO donor, (300 μM) as indicated in FIG. 2. After incubation, the proteins were separated by SDS-PAGE followed by Western blot analysis with an alkaline phosphatase system using monoclonal antibodies produced against nitrotyrosine.

[2] = target: T1, prostaglandin H2 synthase form 2 (Ovis aries, UniProt P79208); test: Peroxynitrite-induced dimerization of prostaglandin H2 synthase form 2, SDS-PAGE without β-mercaptoethanol and Western blot; assay type: biochemical, sheep; conditions: 450 μM peroxynitrite
T1 construct: Prostaglandin H2 synthase form 2, isolated from sheep placenta, contained nitrated tyrosine residues; purchased Cayman Co. (Ann Arbor, Mich.); host or cells: sheep placenta (tissue-purified)
T1 sequence (P79208 17-603): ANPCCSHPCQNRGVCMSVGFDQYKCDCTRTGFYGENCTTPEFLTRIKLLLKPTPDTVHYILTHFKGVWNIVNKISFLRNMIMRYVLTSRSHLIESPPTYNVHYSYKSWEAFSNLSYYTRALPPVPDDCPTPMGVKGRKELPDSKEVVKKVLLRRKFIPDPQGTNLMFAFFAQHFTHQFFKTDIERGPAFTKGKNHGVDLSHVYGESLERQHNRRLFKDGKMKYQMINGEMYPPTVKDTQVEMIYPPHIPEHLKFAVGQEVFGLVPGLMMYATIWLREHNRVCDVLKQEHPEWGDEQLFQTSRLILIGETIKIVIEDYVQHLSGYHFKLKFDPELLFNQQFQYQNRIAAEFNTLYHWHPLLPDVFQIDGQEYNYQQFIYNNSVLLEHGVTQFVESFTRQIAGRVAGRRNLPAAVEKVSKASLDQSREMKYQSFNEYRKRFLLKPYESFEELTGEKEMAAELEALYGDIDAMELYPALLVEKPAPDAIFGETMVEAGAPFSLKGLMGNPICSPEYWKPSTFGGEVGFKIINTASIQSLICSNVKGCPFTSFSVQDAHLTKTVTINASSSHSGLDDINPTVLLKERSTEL
Procedure: (§1) SDS-PAGE was carried out on 10% or 15% gels, according to Laemmli (18), with or without the addition of β-mercaptoethanol in gel loading buffer before heat denaturization of proteins. The separated proteins were electroblotted onto a […] membrane and Western blot analyses were carried out using alkaline phosphatase system as previously described (19,20). Visualization of bands was accomplished by incubation with a mixture of 5-bromo-4-chloro-3-indolylphosphatate p-toluidine and nitrobluetetrazolium. Western blot analyses were also carried out using horseradish peroxidase or alkaline phosphatase system with […] substrates.

[3] = target: T1, prostaglandin H2 synthase form 2; test: Peroxynitrite-induced nitration of prostaglandin H2 synthase form 2, Western blot with anti-nitrotyrosine antibodies; assay type: biochemical, sheep; conditions: for nitration of tyrosine residues of prostaglandin H2 synthase form 2 in the presence of reducing agent: 16 μg sheep PGHS-2, 450 μM peroxynitrite, 31 μM GSH
Procedure: as §1

[4] = target: T2, prostaglandin H2 synthase form 1 (Ovis aries, UniProt P05979); test: Prostaglandin H2 synthase activity analysis by TLC ([14C]arachidonic acid conversion); assay type: biochemical, sheep; conditions: pretreated at 37° C. for 30 minutes; 25 μM [14C]arachidonic acid
T2 construct: sheep prostaglandin H2 synthases form 1 and 2 obtained from ram seminal vesicle and placenta, respectively; purchased Cayman Co. (Ann Arbor, Mich.); host or cells: ram seminal vesicle (tissue-purified)
T2 sequence (P05979 25-600): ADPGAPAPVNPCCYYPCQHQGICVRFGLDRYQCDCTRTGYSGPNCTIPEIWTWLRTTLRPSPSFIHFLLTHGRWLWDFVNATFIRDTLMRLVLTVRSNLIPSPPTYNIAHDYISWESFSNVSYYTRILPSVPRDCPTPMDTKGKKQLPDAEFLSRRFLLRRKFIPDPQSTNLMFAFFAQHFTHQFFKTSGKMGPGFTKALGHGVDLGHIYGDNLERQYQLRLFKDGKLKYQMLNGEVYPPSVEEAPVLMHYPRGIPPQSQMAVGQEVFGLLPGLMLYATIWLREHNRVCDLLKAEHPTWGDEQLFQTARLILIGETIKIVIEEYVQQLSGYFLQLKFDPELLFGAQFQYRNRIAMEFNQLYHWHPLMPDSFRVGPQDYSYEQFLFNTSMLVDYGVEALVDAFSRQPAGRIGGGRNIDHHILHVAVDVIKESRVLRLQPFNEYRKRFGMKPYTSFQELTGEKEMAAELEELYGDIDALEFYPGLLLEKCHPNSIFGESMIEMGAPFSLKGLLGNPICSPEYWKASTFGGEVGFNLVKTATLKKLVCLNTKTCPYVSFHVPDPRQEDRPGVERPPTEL
Procedure: (§2) Prostaglandin H2 synthase activity analysis of sheep prostaglandin H2 synthases form 1 and 2 obtained from ram seminal vesicle and placenta, respectively, were carried out as previously described (21) with or without pretreatment with peroxynitrite. Briefly, purified or partly purified sheep prostaglandin H2 synthases form 1 (9 units) and form 2 (12 units) were pretreated with or without peroxynitrite at 37° C. for 30 minutes. [^14C]arachidonic acid (AA) (25 μM) (NEN, specific activity 53 mCi/mmol) was added to the prostaglandin H2 synthase form 1 or form 2 in 0.2 ml of PBS, and incubated at 37° C. for 10 minutes. Prostaglandin H2 synthase metabolites in the medium were extracted with ethyl acetate, dried down in a centrifugal evaporator, spotted on a silica TLC plate and separated using A-9 solvent (ethyl acetate:trimethylpentane:acetic acid:water, 55:25:10:50). The TLC assay measured products resulting from both the cyclooxygenase and peroxidase activities of prostaglandin H2 synthase. The immediate product of the prostaglandin H2 synthase reaction, prostaglandin H2, was unstable and broke down in a non-enzymatic fashion to a variety of prostaglandins which were detectable by TLC. The Rf pattern in the A-9 solvent system of the break down products of prostaglandin H2 produced by ram seminal vesicle prostaglandin H2 synthase form 1 was well characterized. […]

[5] = target: T1, prostaglandin H2 synthase form 2; test: as above; assay type: biochemical, sheep; conditions: pretreated at 37° C. for 30 minutes; 25 μM [14C]arachidonic acid
Procedure: as §2

cytochrome c [6] = test: Nitration and polymerization of cytochrome c, SDS-PAGE and anti-nitrotyrosine Western blot; assay type: biochemical
Procedure: as §1
Cytochrome c (40 μg) was incubated with 0.5 mM (FIG. 1, Panel A, lane 1) […] deactivated (a negative control, FIG. 1, Panel A, lane 2) peroxynitrite in 100 mM phosphate buffer, pH 7.4. Deactivated peroxynitrite was produced by incubation of 0.5 mM peroxynitrite in buffer for 5 minutes prior to addition to the reaction mixture. […]
Cytochrome c (40 μg) was incubated with increasing concentrations (0.032 to 0.13 mM) (FIG. 1, Panel B) of peroxynitrite in 100 mM phosphate buffer, pH 7.4. […] The cytochrome c monomer band (14 kDa) shown in Western blot analysis in FIG. 1, Panel B and those obtained from two other experiments were quantitated using Molecular Dynamics Personal Densitometer (FIG. 1, Panel C).

Compound: NCCN(CCN)/[N+]([O-])=N/O [DETA NONOate, diethylenetetraamine (DETA) NONOate]
- nitration and polymerization of cytochrome c (cytochrome c [1]): nitrated and polymerized

- dimerization of prostaglandin H2 synthase form 2 in the presence of reducing agent ([2]; 31 μM GSH, no β-mercaptoethanol in loading buffer): ran as a monomer
- nitration of tyrosine residues of prostaglandin H2 synthase form 2 in the presence of reducing agent [3]: inhibited
- nitration of tyrosine residues of prostaglandin H2 synthase form 2 in the presence of reducing agent ([3]; listed as GSH): not nitrated
Compound: N[C@@H](CCC(=O)N[C@@H](CS)C(=O)NCC(=O)O)C(=O)O [glutathione]

- catalytic activity of prostaglandin H2 synthase form 1 after treatment [4]: abolished
- catalytic activity of prostaglandin H2 synthase form 2 after treatment [5]: abolished
- nitration of tyrosine residues of prostaglandin H2 synthase form 2 by oxidant ([3]; 450 μM peroxynitrite, no GSH): increased
Compound: O=NOO [peroxynitrite]
- dimerization of prostaglandin H2 synthase form 2 by oxidant ([2]; no GSH, no β-mercaptoethanol): migrated both as a monomer (70 kDa) and a dimer (140 kDa)
- nitration and polymerization of cytochrome c (cytochrome c [6]; 0.5 mM peroxynitrite, 100 mM phosphate buffer, pH 7.4): nitrated and polymerized to 30 kDa, 45 kDa and higher molecular mass
- concentration dependence of nitration and polymerization of cytochrome c (cytochrome c [6]; 0.032 to 0.13 mM peroxynitrite): nitrated and polymerized in a dose-dependent manner
